# Key:
# [1] = target: T1, Mineralocorticoid receptor (Homo sapiens) (UniProt P08235); assay: (§1) In vitro antagonistic activity against human mineralocorticoid receptor (hMR); assay type: functional
# T1 sequence (whole entry): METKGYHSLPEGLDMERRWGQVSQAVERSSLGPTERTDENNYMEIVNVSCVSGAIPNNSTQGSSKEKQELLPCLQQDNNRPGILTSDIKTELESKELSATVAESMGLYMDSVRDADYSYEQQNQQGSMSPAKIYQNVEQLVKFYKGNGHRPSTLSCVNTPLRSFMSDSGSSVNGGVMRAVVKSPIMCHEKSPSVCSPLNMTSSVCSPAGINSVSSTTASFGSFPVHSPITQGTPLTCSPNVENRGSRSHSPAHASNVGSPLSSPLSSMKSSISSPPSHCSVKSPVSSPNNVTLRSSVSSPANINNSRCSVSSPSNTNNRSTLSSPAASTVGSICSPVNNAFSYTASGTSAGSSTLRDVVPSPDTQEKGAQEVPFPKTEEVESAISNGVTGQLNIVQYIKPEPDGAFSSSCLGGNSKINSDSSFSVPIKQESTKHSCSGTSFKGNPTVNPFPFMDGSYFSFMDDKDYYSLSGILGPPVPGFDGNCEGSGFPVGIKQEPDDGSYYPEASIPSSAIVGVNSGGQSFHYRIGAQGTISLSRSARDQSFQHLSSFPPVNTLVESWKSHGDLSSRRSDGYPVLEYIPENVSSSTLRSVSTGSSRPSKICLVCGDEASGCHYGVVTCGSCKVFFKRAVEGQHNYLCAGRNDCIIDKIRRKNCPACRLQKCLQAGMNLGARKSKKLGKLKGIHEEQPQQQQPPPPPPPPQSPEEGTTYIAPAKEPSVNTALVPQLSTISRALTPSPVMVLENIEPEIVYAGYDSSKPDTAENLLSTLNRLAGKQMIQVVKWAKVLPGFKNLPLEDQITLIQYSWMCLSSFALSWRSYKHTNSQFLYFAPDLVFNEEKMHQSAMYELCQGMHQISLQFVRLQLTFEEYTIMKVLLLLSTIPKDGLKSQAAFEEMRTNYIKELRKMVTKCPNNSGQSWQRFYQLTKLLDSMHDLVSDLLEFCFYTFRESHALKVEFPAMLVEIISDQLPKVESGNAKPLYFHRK
# [2] = target: T2, Mineralocorticoid receptor (Homo sapiens, UniProt P08235); assay: In vitro antagonistic activity against human mineralocorticoid receptor (hMR); not active; assay type: functional
# T2 sequence (P08235 whole entry): T1 sequence (whole entry)
# [3] = target: T3, Glucocorticoid receptor (Homo sapiens, UniProt P04150); assay: In vitro antagonistic activity against human glucocorticoid receptor (hGR); not active; assay type: functional
# T3 sequence (P04150 whole entry): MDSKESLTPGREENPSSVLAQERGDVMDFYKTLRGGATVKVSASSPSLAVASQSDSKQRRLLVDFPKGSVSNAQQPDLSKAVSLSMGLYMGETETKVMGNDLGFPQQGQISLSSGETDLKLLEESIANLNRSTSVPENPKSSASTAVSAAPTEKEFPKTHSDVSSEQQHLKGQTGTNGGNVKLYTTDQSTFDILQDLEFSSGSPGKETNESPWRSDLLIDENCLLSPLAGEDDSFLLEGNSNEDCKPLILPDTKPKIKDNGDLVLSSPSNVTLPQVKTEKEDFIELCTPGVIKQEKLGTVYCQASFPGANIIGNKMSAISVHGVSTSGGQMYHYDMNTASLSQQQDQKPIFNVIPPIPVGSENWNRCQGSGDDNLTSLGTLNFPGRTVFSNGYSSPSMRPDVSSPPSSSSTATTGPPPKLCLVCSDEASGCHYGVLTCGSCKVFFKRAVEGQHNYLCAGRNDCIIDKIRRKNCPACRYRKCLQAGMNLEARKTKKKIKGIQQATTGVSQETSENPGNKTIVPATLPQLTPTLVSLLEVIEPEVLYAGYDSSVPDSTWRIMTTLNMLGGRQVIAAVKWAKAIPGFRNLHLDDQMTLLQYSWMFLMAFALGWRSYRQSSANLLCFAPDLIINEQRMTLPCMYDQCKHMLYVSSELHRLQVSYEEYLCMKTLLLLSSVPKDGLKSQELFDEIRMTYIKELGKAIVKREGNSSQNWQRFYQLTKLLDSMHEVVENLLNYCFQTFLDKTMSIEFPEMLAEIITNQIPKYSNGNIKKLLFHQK
# [4] = target: T4, Estrogen receptor (Homo sapiens, UniProt Q92731+P03372); assay: (§2) In vitro antagonistic activity against human estrogen receptor (hER); assay type: functional
# [5] = target: T5, Progesterone receptor (Homo sapiens) (UniProt P06401); assay: (§3) In vitro antagonistic activity against human progesterone receptor (hPR); assay type: functional
# T5 sequence (whole entry): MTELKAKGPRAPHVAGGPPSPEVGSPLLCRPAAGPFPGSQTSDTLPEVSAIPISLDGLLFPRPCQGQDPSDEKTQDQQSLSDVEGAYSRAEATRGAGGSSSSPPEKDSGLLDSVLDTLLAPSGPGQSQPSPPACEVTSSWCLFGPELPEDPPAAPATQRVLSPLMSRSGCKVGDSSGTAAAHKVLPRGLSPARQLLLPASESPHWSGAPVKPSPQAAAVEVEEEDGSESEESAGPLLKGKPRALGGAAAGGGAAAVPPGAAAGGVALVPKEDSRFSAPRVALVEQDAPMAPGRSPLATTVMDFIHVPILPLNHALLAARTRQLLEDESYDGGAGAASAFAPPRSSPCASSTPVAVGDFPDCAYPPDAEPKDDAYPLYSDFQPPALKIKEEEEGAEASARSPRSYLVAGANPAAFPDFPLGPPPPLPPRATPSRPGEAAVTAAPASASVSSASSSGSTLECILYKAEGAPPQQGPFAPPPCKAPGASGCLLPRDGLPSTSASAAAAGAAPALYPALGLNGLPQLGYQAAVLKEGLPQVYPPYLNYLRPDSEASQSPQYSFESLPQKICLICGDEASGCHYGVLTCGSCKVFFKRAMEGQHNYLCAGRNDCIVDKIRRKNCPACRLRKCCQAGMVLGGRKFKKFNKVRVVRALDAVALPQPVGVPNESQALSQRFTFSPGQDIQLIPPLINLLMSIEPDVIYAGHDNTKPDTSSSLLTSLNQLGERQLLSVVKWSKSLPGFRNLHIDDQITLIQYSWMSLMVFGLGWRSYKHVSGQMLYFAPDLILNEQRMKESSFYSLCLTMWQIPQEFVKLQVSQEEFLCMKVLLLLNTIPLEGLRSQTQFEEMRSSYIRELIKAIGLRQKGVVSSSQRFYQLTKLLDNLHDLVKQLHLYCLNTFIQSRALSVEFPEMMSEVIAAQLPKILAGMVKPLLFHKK
# [6] = target: T6, Progesterone receptor (Homo sapiens, UniProt P06401); assay: as §3; assay type: functional
# T6 sequence (P06401 whole entry): T5 sequence (whole entry)
# [7] = target: T4, Estrogen receptor; assay: In vitro antagonistic activity against human estrogen receptor (hER); not active; assay type: functional
# [8] = target: T7, Androgen receptor (Homo sapiens, UniProt P10275); assay: biochemical
# T7 sequence (P10275 whole entry): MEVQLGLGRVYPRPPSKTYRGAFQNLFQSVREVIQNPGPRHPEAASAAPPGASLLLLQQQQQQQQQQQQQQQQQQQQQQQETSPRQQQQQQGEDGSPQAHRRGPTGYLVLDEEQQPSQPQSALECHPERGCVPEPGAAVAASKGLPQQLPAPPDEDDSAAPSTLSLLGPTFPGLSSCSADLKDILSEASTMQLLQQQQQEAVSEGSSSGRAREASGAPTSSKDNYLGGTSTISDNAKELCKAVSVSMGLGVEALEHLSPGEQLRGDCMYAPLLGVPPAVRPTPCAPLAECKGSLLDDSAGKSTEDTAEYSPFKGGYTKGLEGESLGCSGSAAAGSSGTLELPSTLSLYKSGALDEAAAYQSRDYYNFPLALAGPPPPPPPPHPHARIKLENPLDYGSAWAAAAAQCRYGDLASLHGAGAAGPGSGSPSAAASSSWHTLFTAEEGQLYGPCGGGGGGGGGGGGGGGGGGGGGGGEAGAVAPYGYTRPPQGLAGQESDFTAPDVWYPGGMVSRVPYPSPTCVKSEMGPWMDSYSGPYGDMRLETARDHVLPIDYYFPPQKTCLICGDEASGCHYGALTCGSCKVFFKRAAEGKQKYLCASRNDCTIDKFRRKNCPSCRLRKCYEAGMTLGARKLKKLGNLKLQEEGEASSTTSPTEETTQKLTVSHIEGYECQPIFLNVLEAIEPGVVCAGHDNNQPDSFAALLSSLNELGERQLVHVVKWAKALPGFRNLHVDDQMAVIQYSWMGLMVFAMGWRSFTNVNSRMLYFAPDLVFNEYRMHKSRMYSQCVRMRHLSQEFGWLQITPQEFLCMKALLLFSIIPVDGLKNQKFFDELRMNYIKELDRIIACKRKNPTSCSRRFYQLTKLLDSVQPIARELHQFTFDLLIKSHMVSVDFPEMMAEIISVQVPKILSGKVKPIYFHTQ
# Description: In vitro binding affinity at human androgen receptor transfected into COS cells.
# [9] = target: T7, Androgen receptor
# Description: In vitro agonistic activity against human androgen receptor using cotransfection assay in CV-1 cells.
# [10] = target: T7, Androgen receptor; remark: listed apart in the source
# [11] = target: T3, Glucocorticoid receptor; assay: In vitro antagonistic activity against human glucocorticoid receptor (hGR); assay type: functional
# [12] = target: T4, Estrogen receptor; assay: In vitro antagonistic activity against human estrogen receptor (hER); Not active; assay type: functional
# [13] = target: T2, Mineralocorticoid receptor; assay: as §1; assay type: functional
# [14] = target: T7, Androgen receptor; remark: listed apart in the source
# [15] = target: T4, Estrogen receptor; assay: as §2; assay type: functional; remark: listed apart in the source
SMILES,Efficacy [1] [%],IC50 [2] [nM],IC50 [3] [nM],Efficacy [4] [%],Efficacy [5] [%],IC50 [6] [nM],IC50 [7] [nM],IC50 [8] [nM],EC50 [9] [nM],IC50 [10] [nM],IC50 [11] [nM],IC50 [12] [nM],IC50 [13] [nM],EC50 [14] [nM],IC50 [15] [nM]
CC1=CC(C)(C)Nc2cc3oc(=O)cc(C(F)(F)F)c3cc21,< 20,> 10000,> 10000,< 20,79,100,> 10000,–,–,–,–,–,–,–,–
O=c1cc(C(F)(F)F)c2cc3c(cc2o1)NCCC3,–,–,–,–,–,–,–,1,19,> 10,–,–,–,–,–
CC[C@@H]1CNc2cc3oc(=O)cc(C(F)(F)F)c3cc2[C@H]1CC (stereo in doubt),50,–,–,< 20,98,65,–,–,5,–,2800,> 10000,1900,1400,–
O=c1cc(C(F)(F)F)c2cc3c(cc2o1)NCCC3C(F)(F)C(F)(F)F (centres undefined),–,–,–,–,–,–,–,5,13,> 10,–,–,–,–,–
CC1(C)CCc2cc3c(C(F)(F)F)cc(=O)oc3cc2N1,50,–,> 10000,< 20,84,570,> 10000,1,9,> 10,–,–,1500,–,–
CCC1CCc2cc3c(C(F)(F)F)cc(=O)oc3cc2N1 (centres undefined),–,–,–,–,–,–,–,1,7,> 10,–,–,–,–,–
CCC1CC(C)c2cc3c(C(F)(F)F)cc(=O)oc3cc2N1 (cis isomer),–,–,–,–,–,–,–,11,8,> 10,–,–,–,–,–
CC[C@H]1CNc2cc3oc(=O)cc(C(F)(F)F)c3cc2[C@@H]1CC (stereo in doubt),–,–,–,–,–,–,–,–,5,> 10,–,–,–,–,–
CCC1CCN(C)c2cc3oc(=O)cc(C(F)(F)F)c3cc21 (centres undefined),–,–,–,–,–,–,–,276,209,> 10,–,–,–,–,–
CC[C@H]1c2cc3c(C(F)(F)F)cc(=O)oc3cc2NC[C@H]1C (relative stereo),39,–,–,33,87,130,–,2,7,> 10,340,–,2800,–,3100
CC[C@@H]1c2cc3c(C(F)(F)F)cc(=O)oc3cc2NC[C@H]1C (relative stereo),60,–,–,< 20,98,130,> 10000,0.3,1,> 10,2300,–,3000,–,–
CC[C@H]1C[C@@H](C)Nc2cc3oc(=O)cc(C(F)(F)F)c3cc21 (relative stereo),–,–,–,–,–,–,–,12,27,–,–,–,–,16,–
CCC1CC(CC)c2cc3c(C(F)(F)F)cc(=O)oc3cc2N1 (trans isomer),–,–,–,–,–,–,–,7,26,> 10,–,–,–,–,–
